One may read the melting point as the temperature, or range, at which the solid turns liquid. Consider `O=C(Nc1ccc(Cl)cn1)c1cc(Cl)ccc1NCC1CCN(C2CCCCC2)CC1`, for which the melting point fell in the range of 186 to 188 °C. In turn, `NC(=O)c1c(Cl)cc(Cl)c(CC(=O)O)c1Cl` registered a melting point of 211 °C. `Cc1nc(N2CCN(Cc3cccc(C(=O)O)c3)C2=O)sc1C(=O)NCc1ccccc1` registered a melting point of 120 to 123 °C. As to `COC1CC2(C)C(CCC3C4CC=C(C(C)=O)C4(C)CCC32)CC1O` (centres undefined), the melting point is 183 to 187 °C. In turn, `COC(=O)c1cc(-c2ccc(OC)c(Cl)c2)nn(CC2CC2)c1=O` registered a melting point of 101 to 104 °C. With `Cc1cccc(NC(=O)c2ccccc2CN2C(=O)C3(COc4cc5c(cc43)CCO5)c3ccccc32)c1` (centres undefined) the figure was 229 to 231 °C.

On to `O=C(O)COc1ccc(SCc2cc(-c3ccc(C(F)(F)F)cc3)on2)c2c1CCCO2`, for which the melting point fell in the range of 112 to 113 °C. `CCC1=Nc2cccc(Cl)c2C(=O)C1` displayed a melting point of 236 to 239 °C. With `NC(=O)Cc1ccc(Nc2nc(OCC3CCCCC3)c3nc[nH]c3n2)cc1` the figure was 234 °C. With `O=C(Oc1ccc(Cl)cc1[N+](=O)[O-])c1ccccc1O` the figure was 155 to 160 °C; with `CN(C)Cc1ccccc1Sc1ccc(F)cc1N`, 56 to 58 °C; with `CCN1c2ncc(CCc3ccncc3)cc2C(=O)N(C)c2ccc(F)nc21`, 109 to 111 °C. To `CCOC(=O)CONC(=S)Nc1cc(Cl)ccc1C` belongs 117 to 119 °C; to `CCCn1c(=O)c(=O)[nH]c2cc([N+](=O)[O-])c(-n3ccc(=O)c([N+](=O)[O-])c3)cc21`, greater than 300 °C; to `CC(C)c1c(CO)n(-c2ccc(F)cc2)c(=O)c2ccccc12`, 157 to 158 °C. Turning to `C=CCn1c2c(c3cc(OCc4ccc5ccccc5n4)ccc31)CCCC2CC(=O)O` (centres undefined), the melting point amounted to 150 °C.

`COc1ccc(S(=O)(=O)N(Cc2cccnc2)c2c(C(=O)O)cnc3snc(C)c23)cc1` returned a melting point of 234 to 236 °C.

With `Cc1nnc2ccc(-c3cccc(C(F)(F)F)c3)cn12`, the melting point was 185 to 187 °C. With `COc1cc2c(=O)cc[nH]c2cc1OCc1ccccc1` the figure was 235 to 236 °C. Turning to `CCn1c(C)nc(N2CCc3ccccc3CC2)c([N+](=O)[O-])c1=O`, the melting point lay in the range of 145 to 147 °C.

Turning to `CCCCCCCCCCCCSc1n[nH]c(-c2ccc(C(C)(C)C)cc2)n1`, the melting point is 87 to 92 °C. `O=C1Nc2cc(Cl)ccc2Nc2cscc21`: the melting point fell in the range of 212 to 213 °C. To `COC(=O)c1n[nH]c(=O)c2cc(OC)ccc12` belongs 222 to 225 °C. To `CC(C)(C)c1cc(SCCC(=O)NN)cc(C(C)(C)C)c1O` belongs 107 to 110 °C; to `COc1ccc(-c2sc3c(c2C)c(=O)c(CO)cn3Cc2ccccc2OC)cc1`, 153 to 156 °C.

`CCOC(=O)N[C@@H](C(=O)N1CCC[C@H]1C(=O)O)c1ccccc1` registered a melting point of 163 to 166 °C.

Take `CCC(=O)C(CCCCCCOc1ccc(S(N)(=O)=O)cc1)C(=O)CC`: the melting point fell in the range of 86 to 87 °C.

`O=Cc1c2ccccc2cc2c(C=O)c3ccccc3cc12` came in with a melting point of 247 to 250 °C.

`COc1ccc(N2CCN(c3c(C)c(C)c4c(c3C)C(N3CCc5ccccc53)C(C)(C)O4)CC2)cc1` (centres undefined): the melting point was 166 to 168 °C. In turn, `Cc1nnc(-c2sc(N3CCN(Cc4ccc(C(F)(F)F)cc4)C3=O)nc2C)[nH]1` came in with a melting point of 273 to 274 °C. The compound `COC(=O)C1CCc2c(noc2-c2ccc(Cl)cc2)C1` (centres undefined) displayed a melting point of 141 to 143 °C. Compound `CCCCCCCCCCCCOC(=O)NCCCCC(N)C(=O)O` (centres undefined) displayed a melting point greater than 260 °C.

`N#Cc1ccc(CN2CCCNC2=C[N+](=O)[O-])cn1` returned a melting point of 214 to 216 °C. With `O=C(O)C(O)=CC(=O)c1cc(Cc2ccccc2)cn(Cc2ccccc2)c1=O` the figure was 158 to 159 °C; with `Cn1ncc(C(=O)N2CCOCC2)c1C(=O)Nc1ccn2nc(Br)nc2c1`, 198 to 214 °C. The compound `COc1cccc(CCOc2ccc(C(=O)N/C(=C\c3ccc(Cl)cc3)C(=O)NCCO)cc2)c1` displayed a melting point of 54 to 56 °C. `COc1cc(-c2ccccc2)nc(-c2ccc(CBr)cc2)n1` yielded a melting point of 98 to 100 °C. To `CC1(n2cc(C(=O)O)c(=O)c3cc(F)c(F)c(F)c32)CC1` belongs 292 to 294 °C; to `COC(=O)c1ccc(CN2N=C(C(C)(C)C)CC2=O)cc1`, 161 to 162 °C.

Compound `CCOC(=O)c1cnc2onc(C)c2c1OCC` registered a melting point of 62 °C. With `COC1(F)C=CC=C(c2cc(CBr)c(=O)n(Cc3ccc(F)cc3)n2)C1` (centres undefined) the figure was 120 to 125 °C. The compound `N#Cc1ccc2c(c1)ncn2-c1cccc(-c2cccnc2)c1` gave a melting point of 191 to 193 °C. Turning to `NC(C=C(Cc1ccccc1)CP(=O)(O)O)C(=O)O` (centres undefined), the melting point fell in the range of 196 to 198 °C. With `CCC(C)(C)c1c(OCc2ncnn2C)nn2c(-c3c(F)ccc(F)c3F)nncc12` the figure was 122 to 125 °C. Turning to `CCC(=O)N1C(=O)c2cc(C)ccc2Oc2ncccc21`, the melting point was 142 to 145 °C.

Take `COc1ccc(N2CCN(c3ccc(NC(=O)NN)cc3)CC2)cc1`: the melting point turned out to be 300 °C. With `O=C(Nc1cccc2[nH]ccc12)c1ccccc1OCCN1CCCCC1` the figure was 154 °C. The compound `CCOC(=O)c1ccc2c(c1)c(C#Cc1ccccc1)nn2CCC#N` registered a melting point of 90 to 94 °C.

In the case of `CCCCCCCCC#CCC#CCC#CCS(=O)(=O)CC(=O)OC`, the melting point worked out at 69 °C. The compound `C=C1c2ccccc2C(=O)N1c1ccncc1` had a melting point of 173 to 174 °C. In the case of `O=c1ccc2c(F)cc(F)cc2[nH]1`, the melting point lay in the range of 292 to 318 °C. Compound `Cc1cc(OCc2nc3ccccc3s2)ccc1[N+](=O)[O-]` registered a melting point of 145 to 147 °C. To `CCCCCCCCCCCCCCCCSCC(CNS(=O)(=O)CCCI)NC(=O)NC` (centres undefined) belongs 70 to 71 °C. To `O=C(O)CCc1cc2cc(Cl)ccc2n1S(=O)(=O)c1ccc2[nH]ccc2c1` belongs 79 °C; to `O=C(NC1CCCCC1O)c1ccccc1` (centres undefined), 172 to 173 °C; to `Cn1c(N2CC3CC2CN3C(=O)c2ccccc2)nc(-c2ccncn2)cc1=O` (centres undefined), 133 to 135 °C. With `CC(C)c1cc(-c2cc(C(=O)Cl)ccc2S(C)(=O)=O)on1` the figure was 102 to 105 °C; with `O=C(O)CCCN1CCN2c3ccccc3Cc3ccccc3C2C1` (centres undefined), 104 to 105 °C; with `CN1CCN(S(=O)(=O)c2ccc(Nc3ncnc4cc(Cl)ccc34)cc2)CC1`, 237 to 239 °C. `O=C(NCCO)c1cccc(-c2cccc3nn(Cc4ccccc4F)cc23)c1` yielded a melting point of 159 to 160 °C.

In turn, `CCC(=O)c1cccc(C(N)=O)c1` returned a melting point of 121 to 122 °C. Compound `CC(C)(C)C#Cc1cc(Cl)cc2c1OC(C(F)(F)F)C(C(=O)O)=C2` (centres undefined) showed a melting point of 218 to 222 °C.

`COc1ccc(CNc2nc(-c3ccc(C(=O)O)cc3)nc3sc(C(F)(F)F)cc23)cc1OC` registered a melting point of 250 °C. Regarding `CC(C)C1C(=O)N(c2ccc(N=Nc3ccc(N(C)C)cc3)cc2)C(=S)N1C` (centres undefined), the melting point lay in the range of 164 to 169 °C. Turning to `Cc1ccccc1C1(O)c2cc(NC(=O)CC(C)(C)C)c(C)c(C)c2OC1(C)C` (centres undefined), the melting point lay within 111 to 112 °C. With `N#CC1(Nc2ccccc2)CCN(C2CCCc3ccccc32)CC1` (centres undefined) the figure was 152 to 153 °C.

Compound `CCOC(=O)c1ccc(N2C(=O)CCC2CO)c(NC(=NC(=O)OC(C)(C)C)NC(=O)OC(C)(C)C)c1` (centres undefined) returned a melting point of 104 to 110 °C.

Compound `O=C(CCCCCCOc1ccc2c(c1)[nH]c1ccccc12)NO` yielded a melting point of 198 °C.

On to `CCNC(=O)NCCCNn1c(COCC)nc2c(N)nc3c(c21)CCCC3`, for which the melting point lay within 189 to 191 °C. With `NC1=Nc2ccccc2CC1` the figure was 135 to 136 °C; with `NC(=O)c1ccccc1C(=O)NCCCN1CCC(c2noc3cc(F)ccc23)CC1`, 129 to 130 °C. Regarding `CC(=O)N(C)c1c(N(C)C)cc(C(=O)CS(C)(=O)=O)cc1N(C)C`, the melting point worked out at 120 °C.

The compound `CCCCc1nc2c(N)nc3ccccc3c2n1CCOCCCc1ccccc1` yielded a melting point of 80.8 to 81.3 °C. `CNC(=O)c1ccc(C=CC(=O)NCC(=O)N(C)c2ccc(Cl)c(CO)c2Cl)cc1`: the melting point lay within 207 to 211 °C. As to `CCc1ccc(OCc2ccc(CO)c(CO)c2)cc1-c1ccc(C(O)(CC)CC)cc1C(C)C`, the melting point worked out at 109 °C.

`COC(=O)c1cc(-c2ccc(SC)cc2)nn(CC(C)C)c1=O` had a melting point of 90.4 to 91.4 °C.

In turn, `C#CCOc1nsc(SC(F)F)c1C#N` displayed a melting point of 83 to 84 °C. With `Cn1cc(C2(c3c4n(c5ccccc35)CCCCC4)CC(=O)NC2=O)c2ccccc21` (centres undefined) the figure was greater than 300 °C. On to `C=CCOc1cccc([N+](=O)[O-])c1OC`, for which the melting point was in the range of 93 to 94 °C. To `CC(=O)Nc1ccc(C(=O)c2c(N)sc3c2CCN(Cc2ccccc2)C3)cc1` belongs 119 to 120 °C. With `CCCC(=O)Nc1c(C)c(C)c2c(c1C)CC(C)(C)O2` the figure was 136 to 138 °C; with `C=CC(O)c1c(C(C)C)nc(C(C)C)c(CCCCC)c1-c1ccc(F)cc1` (centres undefined), 83 to 85 °C. With `Cc1nc(NC(=O)C2=C(O)c3ccc4ccccc4c3S(=O)(=O)N2C)sc1C` the figure was 264 to 265 °C. For `Nc1cc(C(=O)N(Cc2ccccc2)Cc2ccccc2)ccc1OCc1ccccc1`, the melting point amounted to 81 °C. With `COC(=O)COc1ccc(Nc2cc(Nc3ccc(F)c(Cl)c3)ncn2)cc1` the figure was 191 to 193 °C. `COc1ccc(-c2nc(N(C)C)c3c(C)c(C#N)sc3n2)cc1OC` showed a melting point of 198 to 200 °C. With `COc1ccc(CNc2cc(Cl)c(N=CN(C)C)c(Cl)c2)cc1F` the figure was 138 to 140 °C. With `CNC(=NCCCSCn1cncc1C)NC#N` the figure was 156 to 158 °C; with `CCCCNC(=O)C(c1ccccc1)c1ccccc1`, 96 °C.

(Values after a melting point compilation (Tetko et al.; mined from patent text by program, amines drawn as free bases though some values may be those of a salt).)
